Results from patent publication US12180187B2, “1-phenyl-5-azinylpyrazolyl-3-oxyalkyl acids and their use for controlling unwanted plant growth” (BAYER AKTIENGESELLSCHAFT, priority 2019, dated 2024).

Key:
ALOMY [1] = assay: Pre-emergence action against ALOMY, 1280 g/ha; assay type: in vivo, Alopecurus myosuroides; details: visual scoring after about 3 weeks vs untreated controls, 100% = plants have died, 0% = like control plants
How it was run: (§1)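 Percent herbicidal effect, judged by eye relative to untreated pots around 3 weeks after soil-surface treatment. Application: formulated compound in water, 600 L/ha, 0.5% additive, on soil over sown seeds; greenhouse.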

DIGSA [2] = assay: Pre-emergence action against DIGSA, 1280 g/ha; assay type: in vivo, Digitaria sanguinalis; details: visual scoring after about 3 weeks vs untreated controls, 100% = plants have died, 0% = like control plants
How it was run: as §1

ECHCG [3] = assay: Pre-emergence action against ECHCG, 1280 g/ha; assay type: in vivo, Echinochloa crus-galli; details: visual scoring after about 3 weeks vs untreated controls, 100% = plants have died, 0% = like control plants
How it was run: as §1

LOLRI [4] = assay: Pre-emergence action against LOLRI, 1280 g/ha; assay type: in vivo, Lolium rigidum; details: visual scoring after about 3 weeks vs untreated controls, 100% = plants have died, 0% = like control plants
How it was run: as §1

POAAN [5] = assay: Pre-emergence action against POAAN, 1280 g/ha; assay type: in vivo, Poa annua; details: visual scoring after about 3 weeks vs untreated controls, 100% = plants have died, 0% = like control plants
How it was run: as §1

SETVI [6] = assay: Pre-emergence action against SETVI, 1280 g/ha; assay type: in vivo, Setaria viridis; details: visual scoring after about 3 weeks vs untreated controls, 100% = plants have died, 0% = like control plants
How it was run: as §1

ABUTH [7] = assay: Pre-emergence action against ABUTH, 1280 g/ha; assay type: in vivo, Abutilon theophrasti; details: scored visually after about 3 weeks vs untreated controls (100% = plants have died)
Description: 1. Pre-Emergence Herbicidal Effect and Crop Plant Compatibility a) Seeds of mono- and dicotyledonous weed plants are placed in plastic pots in sandy loam soil (doubly sown with one species each of mono- or dicotyledonous weed plants per pot) and covered with soil. The compounds of the invention, formulated in the form of wettable powders (WP) or as emulsion concentrates (EC), are then applied onto the surface of the covering soil as aqueous suspension or emulsion with addition of 0.5% additive at a water application rate equivalent to 600 litres per hectare. After the treatment, the pots are placed in a greenhouse and kept under good growth conditions for the trial plants. After about 3 weeks, the effect of the preparations is scored visually in comparison with untreated controls as percentages. For example, 100% activity=the plants have died, 0% activity=like control plants. 1. Pre-Emergence Effectiveness Tables 1 to 12 below show the effects of selected compounds of the general formula (I) according to Tables 1 and 2 on various harmful plants and at an application rate corresponding to 1280 g/ha, which were obtained by the experimental procedure mentioned above.

AMARE [8] = assay: Pre-emergence action against AMARE, 1280 g/ha; assay type: in vivo, Amaranthus retroflexus; details: scored visually after about 3 weeks vs untreated controls (100% = plants have died)
How it was run: as §1

KCHSC [9] = assay: Pre-emergence action against KCHSC, 1280 g/ha; assay type: in vivo, Bassia scoparia; details: scored visually after about 3 weeks vs untreated controls (100% = plants have died)
How it was run: as §1

MATIN [10] = assay: Pre-emergence action against MATIN, 1280 g/ha; assay type: in vivo, Tripleurospermum inodorum (Matricaria inodora); details: scored visually after about 3 weeks vs untreated controls (100% = plants have died)
How it was run: as §1

STEME [11] = assay: Pre-emergence action against STEME, 1280 g/ha; assay type: in vivo, Stellaria media; details: scored visually after about 3 weeks vs untreated controls (100% = plants have died)
How it was run: as §1

VERPE [12] = assay: Pre-emergence action against VERPE, 1280 g/ha; assay type: in vivo, Veronica persica; details: scored visually after about 3 weeks vs untreated controls (100% = plants have died)
How it was run: as §1

ALOMY [13] = assay: Post-emergence action against ALOMY, 1.28 kg/ha; assay type: in vivo, Alopecurus myosuroides; details: dosage 1280 g/ha, visual rating about 3 weeks after treatment vs untreated controls
How it was run: (§2)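 Percent activity was scored visually ~3 wk post-spray relative to untreated plants. Treatment was post-emergence at the one-leaf stage using WP/EC in water with 0.5% additive (600 L/ha).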

DIGSA [14] = assay: Post-emergence action against DIGSA, 1.28 kg/ha; assay type: in vivo, Digitaria sanguinalis; details: dosage 1280 g/ha, visual rating about 3 weeks after treatment vs untreated controls
How it was run: as §2

ECHCG [15] = assay: Post-emergence action against ECHCG, 1.28 kg/ha; assay type: in vivo, Echinochloa crus-galli; details: dosage 1280 g/ha, visual rating about 3 weeks after treatment vs untreated controls
How it was run: as §2

POAAN [16] = assay: Post-emergence action against POAAN, 1.28 kg/ha; assay type: in vivo, Poa annua; details: dosage 1280 g/ha, visual rating about 3 weeks after treatment vs untreated controls
How it was run: as §2

ABUTH [17] = assay: Post-emergence action against ABUTH, 1.28 kg/ha; assay type: in vivo, Abutilon theophrasti; details: dosage 1280 g/ha, visual rating about 3 weeks after treatment vs untreated controls (100% = plants died)
How it was run: as §2

AMARE [18] = assay: Post-emergence action against AMARE, 1.28 kg/ha; assay type: in vivo, Amaranthus retroflexus; details: dosage 1280 g/ha, visual rating about 3 weeks after treatment vs untreated controls (100% = plants died)
How it was run: as §2

MATIN [19] = assay: Post-emergence action against MATIN, 1.28 kg/ha; assay type: in vivo, Tripleurospermum inodorum (Matricaria inodora); details: dosage 1280 g/ha, visual rating about 3 weeks after treatment vs untreated controls (100% = plants died)
How it was run: as §2

STEME [20] = assay: Post-emergence action against STEME, 1.28 kg/ha; assay type: in vivo, Stellaria media; details: dosage 1280 g/ha, visual rating about 3 weeks after treatment vs untreated controls (100% = plants died)
How it was run: as §2

VERPE [21] = assay: Post-emergence action against VERPE, 1.28 kg/ha; assay type: in vivo, Veronica persica; details: dosage 1280 g/ha, visual rating about 3 weeks after treatment vs untreated controls (100% = plants died)
How it was run: as §2

SETVI [22] = assay: Post-emergence action against SETVI, 1.28 kg/ha; assay type: in vivo, Setaria viridis; details: dosage 1280 g/ha, visual rating about 3 weeks after treatment vs untreated controls
How it was run: as §2

KCHSC [23] = assay: Post-emergence action against KCHSC, 1.28 kg/ha; assay type: in vivo, Bassia scoparia; details: dosage 1280 g/ha, visual rating about 3 weeks after treatment vs untreated controls (100% = plants died)
How it was run: as §2

LOLRI [24] = assay: Post-emergence action against LOLRI, 1.28 kg/ha; assay type: in vivo, Lolium rigidum; details: dosage 1280 g/ha, visual rating about 3 weeks after treatment vs untreated controls
How it was run: as §2

O=C(COc1nn(-c2ccccc2F)c(-c2ccc(F)nc2)c1Br)NS(=O)(=O)CC(F)(F)F [Example X-003]
90%: Pre-emergence action against ALOMY (ALOMY [1]) | Pre-emergence action against ABUTH (ABUTH [7]) | Pre-emergence action against KCHSC (KCHSC [9]) | Post-emergence action against ECHCG (ECHCG [15]) | Post-emergence action against ABUTH (ABUTH [17]) | Post-emergence action against AMARE (AMARE [18]) | Post-emergence action against STEME (STEME [20]) | Post-emergence action against VERPE (VERPE [21])
100%: Pre-emergence action against DIGSA (DIGSA [2]) | Pre-emergence action against ECHCG (ECHCG [3]) | Pre-emergence action against LOLRI (LOLRI [4]) | Pre-emergence action against POAAN (POAAN [5]) | Pre-emergence action against SETVI (SETVI [6]) | Pre-emergence action against AMARE (AMARE [8]) | Pre-emergence action against MATIN (MATIN [10]) | Pre-emergence action against STEME (STEME [11]) | Pre-emergence action against VERPE (VERPE [12]) | Post-emergence action against ALOMY (ALOMY [13]) | Post-emergence action against DIGSA (DIGSA [14]) | Post-emergence action against POAAN (POAAN [16]) | Post-emergence action against MATIN (MATIN [19])

O=C(O)COc1nn(-c2ccccc2F)c(-c2ccc(F)nc2)c1Br [VI-003]
100%: Pre-emergence action against DIGSA (DIGSA [2]) | Pre-emergence action against ECHCG (ECHCG [3]) | Pre-emergence action against POAAN (POAAN [5]) | Pre-emergence action against SETVI (SETVI [6]) | Pre-emergence action against AMARE (AMARE [8]) | Pre-emergence action against MATIN (MATIN [10]) | Pre-emergence action against VERPE (VERPE [12]) | Post-emergence action against DIGSA (DIGSA [14]) | Post-emergence action against ECHCG (ECHCG [15]) | Post-emergence action against POAAN (POAAN [16]) | Post-emergence action against SETVI (SETVI [22]) | Post-emergence action against MATIN (MATIN [19])
90%: Pre-emergence action against ALOMY (ALOMY [1]) | Pre-emergence action against LOLRI (LOLRI [4]) | Pre-emergence action against ABUTH (ABUTH [7]) | Pre-emergence action against STEME (STEME [11]) | Post-emergence action against ABUTH (ABUTH [17]) | Post-emergence action against AMARE (AMARE [18]) | Post-emergence action against KCHSC (KCHSC [23]) | Post-emergence action against VERPE (VERPE [21])

COC(=O)COc1nn(-c2c(F)cccc2F)c(-c2ccc(F)nc2)c1C#N [VII-061]
100%: Pre-emergence action against ALOMY (ALOMY [1]) | Pre-emergence action against DIGSA (DIGSA [2]) | Pre-emergence action against ECHCG (ECHCG [3]) | Pre-emergence action against LOLRI (LOLRI [4]) | Pre-emergence action against POAAN (POAAN [5]) | Pre-emergence action against SETVI (SETVI [6]) | Pre-emergence action against AMARE (AMARE [8]) | Pre-emergence action against MATIN (MATIN [10]) | Pre-emergence action against STEME (STEME [11]) | Pre-emergence action against VERPE (VERPE [12]) | Post-emergence action against ALOMY (ALOMY [13]) | Post-emergence action against DIGSA (DIGSA [14]) | Post-emergence action against ECHCG (ECHCG [15]) | Post-emergence action against LOLRI (LOLRI [24]) | Post-emergence action against POAAN (POAAN [16]) | Post-emergence action against MATIN (MATIN [19]) | Post-emergence action against STEME (STEME [20]) | Post-emergence action against VERPE (VERPE [21])
90%: Pre-emergence action against ABUTH (ABUTH [7]) | Post-emergence action against SETVI (SETVI [22]) | Post-emergence action against ABUTH (ABUTH [17]) | Post-emergence action against AMARE (AMARE [18]) | Post-emergence action against KCHSC (KCHSC [23])
